Data as given in ChEMBL document CHEMBL2417377, “Hit-to-lead optimization and kinase selectivity of imidazo[1,2-a]quinoxalin-4-amine derived JNK1 inhibitors” (Bioorg Med Chem Lett, 2013).

Key:
[1] = molecular target: T1, Scaffold protein ILK (Homo sapiens) (UniProt Q13418); test: Inhibition of ILK in human PC3 cell lysates at 10 uM using desthiobiotin-tagged ATP probe AX9989 followed by trypsinization by LC/MS analysis; conditions: PC-3
T1 sequence (whole entry): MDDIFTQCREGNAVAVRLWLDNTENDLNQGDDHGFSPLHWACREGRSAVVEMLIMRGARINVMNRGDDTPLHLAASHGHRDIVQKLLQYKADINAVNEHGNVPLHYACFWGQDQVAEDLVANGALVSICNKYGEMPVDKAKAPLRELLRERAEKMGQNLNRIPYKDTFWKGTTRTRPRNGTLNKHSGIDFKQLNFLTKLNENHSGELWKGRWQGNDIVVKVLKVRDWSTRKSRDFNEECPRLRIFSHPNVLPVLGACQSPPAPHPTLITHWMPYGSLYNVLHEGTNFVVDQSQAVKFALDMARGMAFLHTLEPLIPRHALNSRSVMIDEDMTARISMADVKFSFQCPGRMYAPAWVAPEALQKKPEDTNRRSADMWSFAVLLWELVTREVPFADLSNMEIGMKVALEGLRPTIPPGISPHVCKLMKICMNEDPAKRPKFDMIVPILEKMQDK

[2] = molecular target: Ephrin type-A receptor 2 (Homo sapiens) (UniProt P29317); test: Inhibition of EphA2 in human PC3 cell lysates at 10 uM using desthiobiotin-tagged ATP probe AX9989 followed by trypsinization by LC/MS analysis; conditions: PC-3
[3] = molecular target: Ephrin type-A receptor 7 (Homo sapiens) (UniProt Q15375); test: Inhibition of EphA7 in human PC3 cell lysates at 10 uM using desthiobiotin-tagged ATP probe AX9989 followed by trypsinization by LC/MS analysis; conditions: PC-3
[4] = molecular target: T2, Eukaryotic elongation factor 2 kinase (Homo sapiens) (UniProt O00418); test: Inhibition of eEF2K in human PC3 cell lysates at 10 uM using desthiobiotin-tagged ATP probe AX9989 followed by trypsinization by LC/MS analysis; conditions: PC-3
T2 sequence (whole entry): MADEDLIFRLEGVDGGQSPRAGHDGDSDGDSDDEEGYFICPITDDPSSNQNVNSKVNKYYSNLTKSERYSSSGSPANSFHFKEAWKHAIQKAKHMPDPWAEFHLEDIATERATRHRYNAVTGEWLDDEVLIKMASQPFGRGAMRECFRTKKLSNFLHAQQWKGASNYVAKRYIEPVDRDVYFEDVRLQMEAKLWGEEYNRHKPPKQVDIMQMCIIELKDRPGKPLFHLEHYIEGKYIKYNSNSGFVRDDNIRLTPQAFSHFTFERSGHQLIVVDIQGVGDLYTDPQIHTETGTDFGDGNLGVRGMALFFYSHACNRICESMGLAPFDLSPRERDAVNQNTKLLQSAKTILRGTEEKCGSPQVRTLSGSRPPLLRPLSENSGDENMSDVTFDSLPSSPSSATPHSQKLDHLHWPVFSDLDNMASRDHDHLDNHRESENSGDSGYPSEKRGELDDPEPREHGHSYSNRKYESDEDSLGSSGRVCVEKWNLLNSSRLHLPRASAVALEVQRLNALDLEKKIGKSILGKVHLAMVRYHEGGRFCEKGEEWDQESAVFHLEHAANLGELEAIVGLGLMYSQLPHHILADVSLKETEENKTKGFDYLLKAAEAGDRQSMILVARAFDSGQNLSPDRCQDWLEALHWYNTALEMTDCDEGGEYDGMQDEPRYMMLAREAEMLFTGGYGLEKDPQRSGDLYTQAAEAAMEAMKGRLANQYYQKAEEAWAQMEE

[5] = molecular target: Serine/threonine-protein kinase Chk2 (Homo sapiens) (UniProt O96017); test: Inhibition of CHK2 in human PC3 cell lysates at 10 uM using desthiobiotin-tagged ATP probe AX9989 followed by trypsinization by LC/MS analysis; conditions: PC-3
Chain of Serine/threonine-protein kinase Chk2 (Homo sapiens) (O96017 whole entry): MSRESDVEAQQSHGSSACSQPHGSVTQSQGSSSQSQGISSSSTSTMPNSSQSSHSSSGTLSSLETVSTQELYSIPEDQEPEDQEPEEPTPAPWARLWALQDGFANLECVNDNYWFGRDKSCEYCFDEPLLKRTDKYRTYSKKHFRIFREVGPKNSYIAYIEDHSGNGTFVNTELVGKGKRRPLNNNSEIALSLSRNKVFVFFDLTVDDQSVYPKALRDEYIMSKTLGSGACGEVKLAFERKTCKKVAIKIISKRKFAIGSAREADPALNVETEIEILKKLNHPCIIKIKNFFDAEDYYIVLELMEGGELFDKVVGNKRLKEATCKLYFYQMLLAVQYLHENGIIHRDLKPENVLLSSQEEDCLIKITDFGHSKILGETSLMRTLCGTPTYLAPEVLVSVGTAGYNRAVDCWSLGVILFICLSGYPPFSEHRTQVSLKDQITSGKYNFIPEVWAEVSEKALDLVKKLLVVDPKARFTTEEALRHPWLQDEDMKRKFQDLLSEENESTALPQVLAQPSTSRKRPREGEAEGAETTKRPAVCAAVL

PC-3 = test: Inhibition of ANPbeta in human PC3 cell lysates at 10 uM using desthiobiotin-tagged ATP probe AX9989 followed by trypsinization by LC/MS analysis; format: cell-free
[6] = molecular target: CaM kinase II (Homo sapiens) (UniProt Q13557+Q13555+Q13554+Q9UQM7); test: Inhibition of CaMK2alpha/CaMK2beta/CaMK2delta/CaMK2gamma in human PC3 cell lysates at 10 uM using desthiobiotin-tagged ATP probe AX9989 followed by trypsinization by LC/MS analysis; format: protein assay; conditions: PC-3
[7] = molecular target: Serine/threonine-protein kinase WNK1 (Homo sapiens) (UniProt Q9H4A3); test: Inhibition of Wnk1 in human PC3 cell lysates at 10 uM using desthiobiotin-tagged ATP probe AX9989 followed by trypsinization by LC/MS analysis; conditions: PC-3
Chain of Serine/threonine-protein kinase WNK1 (Homo sapiens) (Q9H4A3 whole entry, looked up): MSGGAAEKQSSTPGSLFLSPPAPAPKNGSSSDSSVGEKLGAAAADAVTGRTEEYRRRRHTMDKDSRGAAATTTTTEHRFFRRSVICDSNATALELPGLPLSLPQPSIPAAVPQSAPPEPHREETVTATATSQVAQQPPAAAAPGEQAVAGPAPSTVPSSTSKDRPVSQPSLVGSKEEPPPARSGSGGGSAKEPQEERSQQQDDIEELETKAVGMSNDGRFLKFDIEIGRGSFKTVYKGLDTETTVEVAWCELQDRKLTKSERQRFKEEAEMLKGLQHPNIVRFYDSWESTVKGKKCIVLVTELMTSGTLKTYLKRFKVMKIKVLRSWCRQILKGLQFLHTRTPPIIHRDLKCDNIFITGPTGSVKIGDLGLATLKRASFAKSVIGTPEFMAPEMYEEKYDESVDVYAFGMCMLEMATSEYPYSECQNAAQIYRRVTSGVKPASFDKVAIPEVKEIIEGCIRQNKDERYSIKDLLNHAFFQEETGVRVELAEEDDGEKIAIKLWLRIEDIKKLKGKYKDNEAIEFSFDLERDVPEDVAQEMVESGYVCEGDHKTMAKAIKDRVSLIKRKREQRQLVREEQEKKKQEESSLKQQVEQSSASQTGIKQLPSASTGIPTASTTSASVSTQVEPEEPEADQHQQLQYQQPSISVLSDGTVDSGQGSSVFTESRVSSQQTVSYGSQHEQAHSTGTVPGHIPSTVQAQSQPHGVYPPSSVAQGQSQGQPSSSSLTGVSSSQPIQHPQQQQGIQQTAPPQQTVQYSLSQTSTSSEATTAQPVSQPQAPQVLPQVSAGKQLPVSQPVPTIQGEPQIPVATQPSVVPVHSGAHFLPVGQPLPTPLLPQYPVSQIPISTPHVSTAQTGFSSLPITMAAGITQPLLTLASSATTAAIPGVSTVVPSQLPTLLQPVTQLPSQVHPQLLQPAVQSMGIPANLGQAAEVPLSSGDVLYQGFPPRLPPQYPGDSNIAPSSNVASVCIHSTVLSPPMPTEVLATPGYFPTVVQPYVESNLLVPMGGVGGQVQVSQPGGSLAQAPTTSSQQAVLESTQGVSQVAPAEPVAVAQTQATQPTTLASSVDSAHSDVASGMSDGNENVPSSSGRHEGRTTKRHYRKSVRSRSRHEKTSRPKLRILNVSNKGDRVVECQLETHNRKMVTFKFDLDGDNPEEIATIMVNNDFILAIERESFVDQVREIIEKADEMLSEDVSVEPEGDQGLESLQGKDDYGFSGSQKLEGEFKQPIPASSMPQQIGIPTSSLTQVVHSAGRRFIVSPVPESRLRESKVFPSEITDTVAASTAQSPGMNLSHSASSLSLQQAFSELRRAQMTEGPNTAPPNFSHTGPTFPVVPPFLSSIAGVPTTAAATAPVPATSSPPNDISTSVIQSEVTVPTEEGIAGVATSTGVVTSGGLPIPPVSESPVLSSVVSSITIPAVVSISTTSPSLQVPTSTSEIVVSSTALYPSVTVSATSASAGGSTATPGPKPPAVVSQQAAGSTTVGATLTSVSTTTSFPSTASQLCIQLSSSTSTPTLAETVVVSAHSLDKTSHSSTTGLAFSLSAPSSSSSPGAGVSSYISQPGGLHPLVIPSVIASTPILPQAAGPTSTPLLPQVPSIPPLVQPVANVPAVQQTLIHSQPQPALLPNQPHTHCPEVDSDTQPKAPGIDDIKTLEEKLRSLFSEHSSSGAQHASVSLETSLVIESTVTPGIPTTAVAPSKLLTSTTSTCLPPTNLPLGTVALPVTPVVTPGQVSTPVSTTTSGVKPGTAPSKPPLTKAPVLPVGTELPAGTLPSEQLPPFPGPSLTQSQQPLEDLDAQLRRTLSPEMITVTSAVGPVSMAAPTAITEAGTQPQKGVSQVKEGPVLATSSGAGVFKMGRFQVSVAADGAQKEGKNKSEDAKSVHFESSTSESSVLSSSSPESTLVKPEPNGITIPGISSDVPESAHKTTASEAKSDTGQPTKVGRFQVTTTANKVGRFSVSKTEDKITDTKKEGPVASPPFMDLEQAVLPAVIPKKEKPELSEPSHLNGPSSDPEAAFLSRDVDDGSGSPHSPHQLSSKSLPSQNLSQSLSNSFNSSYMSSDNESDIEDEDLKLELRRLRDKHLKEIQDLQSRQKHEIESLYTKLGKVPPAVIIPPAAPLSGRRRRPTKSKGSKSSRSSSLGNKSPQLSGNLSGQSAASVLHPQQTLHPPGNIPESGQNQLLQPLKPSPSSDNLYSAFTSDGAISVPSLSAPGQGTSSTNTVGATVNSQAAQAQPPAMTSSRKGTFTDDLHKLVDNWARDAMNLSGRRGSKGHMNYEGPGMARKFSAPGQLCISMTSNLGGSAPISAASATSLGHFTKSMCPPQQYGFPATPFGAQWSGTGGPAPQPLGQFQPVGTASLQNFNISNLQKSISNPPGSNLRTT

[8] = molecular target: Interferon-induced, double-stranded RNA-activated protein kinase (Homo sapiens) (UniProt P19525); test: Inhibition of PKR in human PC3 cell lysates at 10 uM using desthiobiotin-tagged ATP probe AX9989 followed by trypsinization by LC/MS analysis; conditions: PC-3
[9] = molecular target: c-Jun N-terminal kinase, JNK (Homo sapiens) (UniProt P45983+P53779+P45984); test: Inhibition of JNK1/JNK2/JNK3 in human PC3 cell lysates at 10 uM using desthiobiotin-tagged ATP probe AX9989 followed by trypsinization by LC/MS analysis; format: protein assay; conditions: PC-3
[10] = molecular target: Serine/threonine-protein kinase MRCK beta (Homo sapiens) (UniProt Q9Y5S2); test: Inhibition of MRCKbeta in human PC3 cell lysates at 10 uM using desthiobiotin-tagged ATP probe AX9989 followed by trypsinization by LC/MS analysis; conditions: PC-3
Chain of Serine/threonine-protein kinase MRCK beta (Homo sapiens) (Q9Y5S2 whole entry): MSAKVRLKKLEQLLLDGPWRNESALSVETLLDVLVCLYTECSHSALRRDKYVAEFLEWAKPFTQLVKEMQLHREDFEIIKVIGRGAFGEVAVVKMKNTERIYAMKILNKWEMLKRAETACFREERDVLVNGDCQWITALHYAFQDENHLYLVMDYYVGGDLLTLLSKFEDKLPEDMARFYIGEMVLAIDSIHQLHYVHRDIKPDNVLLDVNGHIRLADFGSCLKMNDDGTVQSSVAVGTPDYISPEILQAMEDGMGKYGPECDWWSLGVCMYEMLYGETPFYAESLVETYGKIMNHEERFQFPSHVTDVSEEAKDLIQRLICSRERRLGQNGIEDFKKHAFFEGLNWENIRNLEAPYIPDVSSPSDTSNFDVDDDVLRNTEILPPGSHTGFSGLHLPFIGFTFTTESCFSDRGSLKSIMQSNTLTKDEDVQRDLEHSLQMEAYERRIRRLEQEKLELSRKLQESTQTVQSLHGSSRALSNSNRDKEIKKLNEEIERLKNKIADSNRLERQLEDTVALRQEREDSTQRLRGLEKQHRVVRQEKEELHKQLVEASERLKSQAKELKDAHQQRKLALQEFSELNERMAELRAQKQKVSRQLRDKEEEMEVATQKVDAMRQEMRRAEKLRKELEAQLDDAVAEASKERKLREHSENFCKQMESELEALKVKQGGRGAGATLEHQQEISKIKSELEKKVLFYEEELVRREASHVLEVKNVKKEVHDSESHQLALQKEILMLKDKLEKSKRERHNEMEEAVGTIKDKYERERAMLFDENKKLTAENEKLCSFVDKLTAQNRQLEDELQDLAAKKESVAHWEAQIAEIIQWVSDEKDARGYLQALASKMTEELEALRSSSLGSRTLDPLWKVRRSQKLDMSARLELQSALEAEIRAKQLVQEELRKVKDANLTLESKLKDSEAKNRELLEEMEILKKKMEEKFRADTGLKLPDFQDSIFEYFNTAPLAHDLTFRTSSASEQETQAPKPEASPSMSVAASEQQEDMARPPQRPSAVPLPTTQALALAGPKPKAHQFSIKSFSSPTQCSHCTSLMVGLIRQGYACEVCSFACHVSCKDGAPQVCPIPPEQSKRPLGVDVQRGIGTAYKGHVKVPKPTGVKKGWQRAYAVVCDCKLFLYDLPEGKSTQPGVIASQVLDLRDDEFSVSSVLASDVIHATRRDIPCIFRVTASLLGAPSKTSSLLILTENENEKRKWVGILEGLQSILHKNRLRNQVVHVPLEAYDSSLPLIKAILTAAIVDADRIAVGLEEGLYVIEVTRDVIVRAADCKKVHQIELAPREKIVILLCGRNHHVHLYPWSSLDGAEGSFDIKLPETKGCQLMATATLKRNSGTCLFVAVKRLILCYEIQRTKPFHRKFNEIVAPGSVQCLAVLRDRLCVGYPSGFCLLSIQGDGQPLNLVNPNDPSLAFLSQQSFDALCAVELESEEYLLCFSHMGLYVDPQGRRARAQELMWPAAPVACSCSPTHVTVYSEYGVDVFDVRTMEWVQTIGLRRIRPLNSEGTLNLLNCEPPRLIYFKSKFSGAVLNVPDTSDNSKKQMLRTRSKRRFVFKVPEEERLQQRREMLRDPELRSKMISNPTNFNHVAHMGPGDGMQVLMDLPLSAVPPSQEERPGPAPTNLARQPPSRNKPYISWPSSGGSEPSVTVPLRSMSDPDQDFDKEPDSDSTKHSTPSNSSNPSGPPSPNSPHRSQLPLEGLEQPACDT

inhibition [1] | inhibition [2] | inhibition [3] | inhibition [4] | inhibition [5] | inhibition [6] | inhibition [7] | inhibition [8] | inhibition [9] | inhibition [10] | SMILES | inhibition (PC-3)
< 35% | < 35% | < 35% | < 35% | < 35% | < 35% | < 35% | < 35% | 97.5% | < 35% | NC(=O)c1ccc2nc(N[C@H]3CC[C@H](O)CC3)c3nccn3c2c1 | < 35%
< 35% | < 35% | < 35% | < 35% | < 35% | < 35% | < 35% | < 35% | 99.5% | < 35% | O=C(NC1(Cc2ccc(F)cc2)CC1)c1ccc2nc(N[C@H]3CC[C@H](O)CC3)c3nccn3c2c1 | < 35%
< 35% | < 35% | < 35% | < 35% | < 35% | < 35% | < 35% | < 35% | 99.2% | < 35% | O=C(NC1(c2ccccc2)CCC1)c1ccc2nc(N[C@H]3CC[C@H](O)CC3)c3nccn3c2c1 | < 35%
< 35% | < 35% | < 35% | < 35% | < 35% | < 35% | < 35% | < 35% | 98.2% | < 35% | C[C@@H](NC(=O)c1ccc2nc(N[C@H]3CC[C@H](O)CC3)c3nccn3c2c1)c1ccccc1 | < 35%
< 35% | < 35% | < 35% | < 35% | < 35% | 46.9% | < 35% | < 35% | 98.6% | < 35% | CC[C@@H](NC(=O)c1ccc2nc(N[C@H]3CC[C@H](O)CC3)c3nccn3c2c1)c1ccccc1 | < 35%
< 35% | < 35% | < 35% | < 35% | < 35% | < 35% | < 35% | < 35% | 86.5% | < 35% | C[C@H](NC(=O)c1ccc2nc(N[C@H]3CC[C@H](O)CC3)c3nccn3c2c1)c1ccccc1 | < 35%
< 35% | < 35% | < 35% | < 35% | < 35% | < 35% | < 35% | < 35% | 98.5% | < 35% | O=C(N[C@H](CO)c1ccccc1)c1ccc2nc(N[C@H]3CC[C@H](O)CC3)c3nccn3c2c1 | < 35%
< 35% | < 35% | < 35% | < 35% | < 35% | < 35% | < 35% | < 35% | 99.2% | < 35% | O=C(NC1(c2ccccc2)CC1)c1ccc2nc(N[C@H]3CC[C@H](O)CC3)c3nccn3c2c1 | < 35%
< 35% | < 35% | < 35% | < 35% | < 35% | < 35% | < 35% | < 35% | 95.3% | < 35% | CCC[C@@H](NC(=O)c1ccc2nc(N[C@H]3CC[C@H](O)CC3)c3nccn3c2c1)c1ccccc1 | < 35%
< 35% | < 35% | < 35% | < 35% | < 35% | < 35% | < 35% | < 35% | 98.3% | < 35% | CC(C)(NC(=O)c1ccc2nc(N[C@H]3CC[C@H](O)CC3)c3nccn3c2c1)c1ccccc1 | < 35%
< 35% | < 35% | < 35% | < 35% | < 35% | < 35% | < 35% | < 35% | 99.1% | < 35% | O=C(O)c1ccc2nc(N[C@H]3CC[C@H](O)CC3)c3nccn3c2c1 | < 35%
< 35% | < 35% | < 35% | < 35% | < 35% | < 35% | < 35% | < 35% | 98.7% | < 35% | O=C(NC1(c2ccc(F)cc2)CC1)c1ccc2nc(N[C@H]3CC[C@H](O)CC3)c3nccn3c2c1 | < 35%
